{
  "source": "patent US20130023491A1",
  "about": "“BETA-CELL REPLICATION PROMOTING COMPOUNDS AND METHODS OF THEIR USE” (President and Fellows of Harvard College, priority 2009, published 2013)",
  "tested_on": "β-cells",
  "assay": "β-cell replication by phosphohistone-H3 (PH3) and PDX-1 co-expression",
  "type": "cell-based, rat",
  "conditions": "A10 2 μM, B8 15 μM",
  "protocol": "Rat islets were isolated as previously described in Gotoh M, Maki T, Kiyoizumi T, Satomi S, Monaco A P: An improved method for isolation of mouse pancreatic islets. Transplantation 40:437-438, 1985, contents of which are herein incorporated by reference in their entirety. Isolated islets were cultured overnight in a tissue culture incubator. The following morning, islets were trypsinized into cellular clusters of 1-3 cells, re-suspended in islet media (Mediatech 99-786-CV; 10% FBS serum (Valley Biomedial BS3033); 8.3 mM Glucose (Sigma G7528); 1× Penicillin/Streptomycin (Invitrogen 15070-063); 1× Glutamax (Invitrogen 35050-079)) and plated into the wells of a 96-well plate (Sigma CLS3904) that had been coated with 804G (a rat bladder carcinoma cell line) conditioned media. The cellular plating density was 60 k cells/well and greater than 95% viability was confirmed at the time of plating. The islet cells were allowed 48-hours to adhere at which time the media was changed (Mediatech 99-786-CV 2% serum, 5 mM glucose, 1× pen/strep, 1× glutamax) and the cells were treated with the test compounds. For screening, compounds were tested at 1 uM concentration in duplicate. After 24-hours of compound treatment, cells were fixed with fresh 4% PFA (Electron Microscopy Services 15710) for 20 minutes and washed with PBS (VWR 45000-446). […]",
  "data": [
    {"smiles": "Nc1ncnc2c1c(I)cn2[C@@H]1O[C@H](CO)[C@@H](O)[C@H]1O", "note": "[A10, 5-iodotubercidin]", "values": [
      {"measurement": "ratio of PH3 over PDX-1 relative to control DMSO treatment", "result": "increased"}
    ]}
  ]
}
